Data reported in patent US5464617A, “β-lactam compounds” (Hoffmann-La Roche Inc., priority 1994, dated 1995).
Where a name gives a salt, the structure may show the parent alone.

Tests used:
E. coli 1346 = assay: Antibacterial activity of the products per se, serial dilution method in liquid medium (Test E); format: cell-based; conditions: test E, product per se
From the text: The antibacterial activity of the products per se is illustrated on the basis of Table 3 hereinafter, the minimum inhibitory concentration […] in vitro against E. coli 1346 being determined using the serial dilution method in liquid medium: […]

[1] = tested on: Citrobacter freundii 1982; assay: MIC in vitro of a 1:4 combination of ceftriaxone with a compound of formula I (Test D); format: cell-based; conditions: test D
Procedure: The minimum inhibitory concentration in vitro ([…]) of a 1:4 combination of ceftriaxone with a compound of formula I against Citrobacter freundii 1982 was measured and compiled in Table 2 hereinafter.

[2] = Table 4, 1:4 combination of ceftriaxone with the compound
[3] = Table 5, particularly preferred products
[4] = Table 5, particularly preferred products, 1:4 combination with ceftriaxone

Compound | MIC E. coli 1346 (E) (E. coli 1346; Table 4) [µg/mL] | MIC C. freundii 1982 (D) [1, 2] [µg/mL] | MIC E. coli 1346 (E) (E. coli 1346; [3]) [µg/mL] | MIC C. freundii 1982 (D) [1, 4] [µg/mL]
CCN1C[C@H]2CC(COC(N)=O)=C(C(=O)O)N3C(=O)[C@@H]1[C@@H]23 [59(c), (1aS,3aR,6bR)-5-Carbamoyloxylmethyl-2-ethyl-1-oxo-1a,2,3,3a,4,6b-hexahydro-1H-2,6a-diazacyclobut[cd]indene-6-carboxylic acid sodium salt] | 8 | 2 | – | –
NC(=O)CN1C[C@H]2CC(COC(N)=O)=C(C(=O)O)N3C(=O)[C@@H]1[C@@H]23 [59(d), (1aS,3aR,6bR)-2-Carbamoylmethyl-5-carbamoyloxymethyl-1-oxo-1a,2,3,3a,4,6b-hexahydro-1H-2,6a-diazacyclobut[cd]indene-6-carboxylic acid sodium salt] | 8 | 1 | – | –
Cn1nnnc1SCC1=C(C(=O)O)N2C(=O)[C@@H]3[C@H]2[C@H](C1)CN3CC(=O)Nc1ccc(O)cc1 [61(b), (1aS,3aR,6bR)-2-(4-Hydroxy-phenylcarbamoylmethyl)-5-(1-methyl-1H-tetrazol-5-ylsulphanylmethyl)-1-oxo-1a,2,3,3a,4,6b-hexahydro-1H-2,6a-diazacyclobut[cd]indene-6-carboxylic acid sodium salt] | 16 | 2 | – | –
CC(=O)N1C[C@H]2CC(CSc3nnc(C)s3)=C(C(=O)O)N3C(=O)[C@@H]1[C@@H]23 [65(a), (1aS,3aR,6bR)-2-Acetyl-5-(5-methyl-1,3,4-thiadiazol-2-ylsulphanylmethyl)-1-oxo-1a,2,3,3a,4,6b-hexahydro-1H-2,6a-diazacyclobut[cd]indene-6-carboxylic acid sodium salt] | 0.5 | 1 | – | –
Cc1nnc(SCC2=C(C(=O)O)N3C(=O)[C@@H]4[C@H]3[C@H](C2)CN4C(=O)C(F)(F)F)s1 [65(b), (1aS,3aR,6bR)-5-(S-Methyl-1,3,4-thiadiazol-2-ylsulphanylmethyl)-1-oxo-2-trifluoroacetyl-1a,2,3,3a,4,6b-hexahydro-1H-2,6a-diazacyclobut[cd]indene-6-carboxylic acid sodium salt] | 2 | 1 | – | –
Cc1nnc(SCC2=C(C(=O)O)N3C(=O)[C@@H]4[C@H]3[C@H](C2)CN4C(=O)CSc2ccncc2)s1 [65(c), (1aS,3aR,6 bR)-5-(S-Methyl-1,3,4-thiadiazol-2-ylsulphanylmethyl)-1-oxo-2-(pyridin-4-ylsulphanylacetyl)-1a,2,3,3a,4,6b-hexahydro-1H-2,6a-diazacyclobut[cd]indene-6-carboxylic acid sodium salt] | 2 | 1 | – | –
Cc1nnc(SCC2=C(C(=O)[O-])N3C(=O)[C@@H]4[C@H]3[C@H](C2)CN4C(=O)C[n+]2cccc(C(N)=O)c2)s1 [65(d), (1aS,3aR,6bR)-2-(3-Carbamoyl-pyridin-1-ylioacetyl)-5-(5-methyl-1,3,4-thiadiazol-2-ylsulphanylmethyl)-1-oxo-1a,2,3,3a,4,6b-hexahydro-1H-2,6a-diazacyclobut[cd]indene-6-carboxylic acid sodium salt] | 16 | 2 | – | –
Cc1nnc(SCC2=C(C(=O)O)N3C(=O)[C@@H]4[C@H]3[C@H](C2)CN4C=O)s1 [65(e), (1aS,3aR,6bR)-2-Formyl-5-(5-methyl-1,3,4-thiadiazol-2-ylsulphanylmethyl)-1-oxo-1a,2,3,3a,4,6b-hexahydro-1H-2,6a-diazacyclobut[cd]indene-6-carboxylicacid sodium salt] | 1 | 0.5 | – | –
Cc1nnc(SCC2=C(C(=O)O)N3C(=O)[C@@H]4[C@H]3[C@H](C2)CN4C(=O)CSc2nnc(N)s2)s1 [65(f), (1aS,3aR,6bR)-2-(2-Amino-1,3,4-thiadiazol-5-ylsulphanylacetyl)-5-(5-methyl-1,3,4-thiadiazol-2-ylsulphanylmethyl)-1-oxo-1a,2,3,3a,4,6b-hexahydro-1H-2,6a-diazacyclobut[cd]indene-6-carboxylic acid sodium salt] | 2 | 0.5 | – | –
Cc1nnc(SCC2=C(C(=O)O)N3C(=O)[C@@H]4[C@H]3[C@H](C2)CN4C(=O)CSCC(N)=O)s1 [65(g), (1aS,3aR,6bR)-2-Carbamoylmethylsulphanylacetyl-5-(5-methyl-1,3,4-thiadiazol-2-ylsulphanylmethyl)-1-oxo-1a,2,3,3a,4,6b-hexahydro-1H-2,6a-diazacyclobut[cd]indene-6-carboxylic acid sodium salt] | 8 | 0.5 | – | –
CC(=O)N1C[C@H]2CC(CSc3nc(-c4cccnc4)cs3)=C(C(=O)O)N3C(=O)[C@@H]1[C@@H]23 [67(a), (1aS,3aR,6bR)-2-Acetyl-1-oxo-5-(4-pyridin-3-yl-thiazol-2-ylsulphanylmethyl)-1a,2,3,3a,4,6b-hexahydro-1H-2,6a-diazacyclobut[cd]indene-6-carboxylic acid sodium salt] | 0.5 | 8 | – | –
O=C(O)C1=C(CSc2nc(-c3cccnc3)cs2)C[C@@H]2CN(C(=O)C(F)(F)F)[C@@H]3C(=O)N1[C@H]23 [67(b), (1aS,3aR,6bR)-1-Oxo-5-(4-pyridin-3-yl-thiazol-2-ylsulphanylmethyl)-2-trifluoroacetyl-la,2,3,3a,4,6b-hexahydro-1H-2,6a-diazacyclobut[cd]indene-6-carboxylic acid sodium salt] | 4 | 8 | – | –
CC(=O)N1C[C@H]2CC(CSc3nnnn3CC(N)=O)=C(C(=O)O)N3C(=O)[C@@H]1[C@@H]23 [70(a), (1aS,3aR,6bR)-2-Acetyl-5-(1-carbamoylmethyl-1H-tetrazol-5-ylsulphanylmethyl)-1-oxo-1a,2,3,3a,4,6b-hexahydro-1H-2,6a-diazacyclobut[cd]indene-6-carboxylic acid sodium salt] | – | – | 1 | 0.5
NC(=O)Cn1nnnc1SCC1=C(C(=O)O)N2C(=O)[C@@H]3[C@H]2[C@H](C1)CN3C(=O)C(F)(F)F [70(b), (1aS,3aR,6bR)-5-(1-Carbamoylmethyl-1H-tetrazol-5-ylsulphanylmethyl)-2-trifluoroacetyl-1-oxo-1a,2,3,3a,4,6b-hexahydro-1H-2,6a-diazacyclobut[cd]indene-6-carboxylic acid sodium salt] | 1 | 0.5 | – | –
NC(=O)Cn1nnnc1SCC1=C(C(=O)O)N2C(=O)[C@@H]3[C@H]2[C@H](C1)CN3C=O [70(c), (1aS,3aR,6bR)-5-(1-Carbamoylmethyl-1H-tetrazol-5-ylsulphanylmethyl)-2-formyl-1-oxo-1a,2,3,3a,4,6b-hexahydro-1H-2,6a-diazacyclobut[cd]indene-6-carboxylic acid sodium salt] | – | – | 1 | 0.25
CC(=O)N1C[C@H]2CC(CSc3ncccn3)=C(C(=O)O)N3C(=O)[C@@H]1[C@@H]23 [72(a), (1aS,3aR,6bR)-2-Acetyl-1-oxo-5-(pyrimidin-2-ylsulphanylmethyl)-1a,2,3,3a,4,6b-hexahydro-1H-2,6a-diazacyclobut[cd]indene-6-carboxylic acid sodium salt] | 2 | 4 | – | –
O=C(O)C1=C(CSc2ncccn2)C[C@@H]2CN(C(=O)C(F)(F)F)[C@@H]3C(=O)N1[C@H]23 [72(b), (1aS,3aR,6bR)-1-Oxo-5-(pyrimidin-2-ylsulphanylmethyl)-2-trifluoroacetyl-1a,2,3,3a,4,6b-hexahydro-1H-2,6a-diazacyclobut[cd]indene-6-carboxylic acid sodium salt] | 4 | 2 | – | –
CNC(=O)Cn1nnnc1SCC1=C(C(=O)O)N2C(=O)[C@@H]3[C@H]2[C@H](C1)CN3C(C)=O [74(a), (1aS,3aR,6bR)-2-Acetyl-5-(1-methylcarbamoylmethyl-1H-tetrazol-5-ylsulphanylmethyl)-1-oxo-1a,2,3,3a,4,6b-hexahydro-1H-2,6a-diazacyclobut[cd]indene-6-carboxylic acid sodium salt] | 2 | 1 | – | –
CNC(=O)Cn1nnnc1SCC1=C(C(=O)O)N2C(=O)[C@@H]3[C@H]2[C@H](C1)CN3C(=O)C(F)(F)F [74(b), (1aS,3aR,6bR)-5-(1-Methylcarbamoylmethyl-1H-tetrazol-1-ylsulphanylmethyl)-1-oxo-2-trifluoroacetyl-1a,2,3,3a,4,6b-hexahydro-1H-2,6a-diazacyclobut[cd]indene-6-carboxylic acid sodium salt] | 1 | 1 | – | –
CC(=O)N1C[C@H]2CC(CSc3nc[nH]n3)=C(C(=O)O)N3C(=O)[C@@H]1[C@@H]23 [76(a), (1aS,3aR,6bR)-2-Acetyl-1-oxo-5-(1H-1,2,4-triazol-3-ylsulphanylmethyl)-1a,2,3,3a,4,6b-hexahydro-1H-2,6a-diazacyclobut[cd]indene-6-carboxylic acid sodium salt] | 2 | 1 | – | –
O=C(O)C1=C(CSc2nc[nH]n2)C[C@@H]2CN(C(=O)C(F)(F)F)[C@@H]3C(=O)N1[C@H]23 [76(b), (1aS,3aR,6bR)-1-Oxo-5-(1H-1,2,4-triazol-3-ylsulphanylmethyl)-2-trifluoroacetyl-1a,2,3,3a,4,6b-hexahydro-1H-2,6a-diazacyclobut[cd]indene-6-carboxylic acid sodium salt] | ≤ 0.25 | 0.5 | – | –
